Reference: patent US11279687B2, “Compounds and compositions for the inhibition of NAMPT” (Valo Health, Inc., priority 2010, dated 2022)
Like-named read-outs stand apart in the source and are kept apart here.

Tests used:
[1] = system: A2780 cells; assay: In-vitro cell proliferation assay (SRB), A2780 cells; format: cell-based; conditions: A2780 cells, 72 hours, SRB, read-out: A2780 IC50;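 note: viable cell number read as SRB absorbance, background from media-only wells subtracted, IC50 interpolated from percent inhibition at two bracketing compound concentrations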
[2] = biological target: NAMPT (Homo sapiens (Human), UniProt P43490); assay: NAMPT biochemical inhibition assay (NMN quantified by mass spectrometry); conditions: NAMPT biochemical inhibition; read-out: Biochem IC50
NAMPT, sequence (P43490 whole entry): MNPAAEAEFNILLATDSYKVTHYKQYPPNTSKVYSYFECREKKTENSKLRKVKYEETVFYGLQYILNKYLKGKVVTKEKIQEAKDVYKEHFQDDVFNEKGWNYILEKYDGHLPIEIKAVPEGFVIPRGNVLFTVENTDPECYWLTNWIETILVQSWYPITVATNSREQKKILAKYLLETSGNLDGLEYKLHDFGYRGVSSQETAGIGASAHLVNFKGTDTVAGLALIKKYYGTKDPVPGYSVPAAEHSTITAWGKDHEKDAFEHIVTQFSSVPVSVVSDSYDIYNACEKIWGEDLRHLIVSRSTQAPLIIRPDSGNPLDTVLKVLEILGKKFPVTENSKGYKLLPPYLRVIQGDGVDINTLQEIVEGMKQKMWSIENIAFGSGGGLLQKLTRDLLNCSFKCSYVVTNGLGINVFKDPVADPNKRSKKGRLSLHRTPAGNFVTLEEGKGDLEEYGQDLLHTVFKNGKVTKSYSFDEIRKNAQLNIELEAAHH

IC50 ([1]; Homo sapiens, A2780, 72 h) [nM]	IC50 [2] [nM]	SMILES	IC50 [1] [nM]
14	1	O=C(NCc1cccnc1)Nc1ccc(S(=O)(=O)c2ccc(-n3cccn3)cc2F)cc1 [3-(4-{[2-fluoro-4-(1H-pyrazol-1-yl)benzene]sulfonyl}phenyl)-1-(pyridin-3-ylmethyl)urea]	–
3	2	COc1cc(-n2cccn2)ccc1S(=O)(=O)c1ccc(NC(=O)NCc2cccnc2)cc1 [3-(4-{[2-methoxy-4-(1H-pyrazol-1-yl)benzene]sulfonyl}phenyl)-1-(pyridin-3-ylmethyl)urea]	–
31	3	COc1ccc(C(C)C)cc1S(=O)(=O)c1ccc(NC(=O)NCc2cccnc2)cc1 [3-(4-{[2-methoxy-5-(propan-2-yl)benzene]sulfonyl}phenyl)-1-(pyridin-3-ylmethyl)urea]	–
3.3	1.4	COc1ccc(C(F)(F)F)cc1S(=O)(=O)c1ccc(NC(=O)NCc2cccnc2)cc1 [3-(4-{[2-methoxy-5-(trifluoromethyl)benzene]sulfonyl}phenyl)-1-(pyridin-3-ylmethyl)urea]	–
21	2	Cc1cc(-n2cccn2)ccc1S(=O)(=O)c1ccc(NC(=O)NCc2cccnc2)cc1 [3-(4-{[2-methyl-4-(1H-pyrazol-1-yl)benzene]sulfonyl}phenyl)-1-(pyridin-3-ylmethyl)urea]	–
100 to 1000	11.8	Cc1cc(C(F)(F)F)ccc1S(=O)(=O)c1ccc(NC(=O)NCc2cccnc2)cc1 [3-(4-{[2-methyl-4-(trifluoromethyl)benzene]sulfonyl}phenyl)-1-(pyridin-3-ylmethyl)urea]	–
100 to 1000	3.3	CC(C)COc1cccc(S(=O)(=O)c2ccc(NC(=O)NCc3cccnc3)cc2)c1 [3-(4-{[3-(2-methylpropoxy)benzene]sulfonyl]phenyl)-1-(pyridin-3-ylmethyl)urea]	–
15.9	1.6	Cc1cc(C)n(-c2cccc(S(=O)(=O)c3ccc(NC(=O)NCc4cccnc4)cc3)c2)n1 [3-(4-{[3-(3,5-dimethyl-1H-pyrazol-1-yl)benzene]sulfonyl}phenyl)-1-(pyridin-3-ylmethyl)urea]	–
79.3	3.3	CN(C)S(=O)(=O)c1cccc(S(=O)(=O)c2ccc(NC(=O)NCc3cccnc3)cc2)c1 [3-(4-{[3-(dimethylsulfamoyl)benzene]sulfonyl]phenyl)-1-(pyridin-3-ylmethyl)urea]	–
100 to 1000	7.6	CCS(=O)(=O)c1cccc(S(=O)(=O)c2ccc(NC(=O)NCc3cccnc3)cc2)c1 [3-(4-{[3-(ethanesulfonyl)benzene]sulfonyl]phenyl)-1-(pyridin-3-ylmethyl)urea]	–
100 to 1000	7.2	CCNS(=O)(=O)c1cccc(S(=O)(=O)c2ccc(NC(=O)NCc3cccnc3)cc2)c1 [3-(4-{[3-(ethylsulfamoyl)benzene]sulfonyl}phenyl)-1-(pyridin-3-ylmethyl)urea]	–
93.3	3.3	COCc1cccc(S(=O)(=O)c2ccc(NC(=O)NCc3cccnc3)cc2)c1 [3-(4-{[3-(methoxymethyl)benzene]sulfonyl}phenyl)-1-(pyridin-3-ylmethyl)urea]	–
38	2	CC(C)c1cccc(S(=O)(=O)c2ccc(NC(=O)NCc3cccnc3)cc2)c1 [3-(4-{[3-(propan-2-yl)benzene]sulfonyl}phenyl)-1-(pyridin-3-ylmethyl)urea]	–
79	4	CC(C)Oc1cccc(S(=O)(=O)c2ccc(NC(=O)NCc3cccnc3)cc2)c1 [3-(4-{[3-(propan-2-yloxy)benzene]sulfonyl}phenyl)-1-(pyridin-3-ylmethyl)urea]	–
86	1.6	CCCS(=O)(=O)Nc1cccc(S(=O)(=O)c2ccc(NC(=O)NCc3cccnc3)cc2)c1 [3-(4-{[3-(propane-1-sulfonamido)benzene]sulfonyl}phenyl)-1-(pyridin-3-ylmethyl)urea]	–
24	1	O=C(NCc1cccnc1)Nc1ccc(S(=O)(=O)Nc2ccc(N3CCOCC3)c(Cl)c2)cc1 [3-(4-{[3-chloro-4-(morpholin-4-yl)phenyl]sulfamoyl}phenyl)-1-(pyridin-3-ylmethyl)urea]	–

IC50 ([1]; Homo sapiens, A2780, 72 h) [nM]	IC50 [2] [nM]	SMILES	IC50 [1] [nM]
100 to 1000	4	O=C(NCc1cccnc1)Nc1ccc(S(=O)(=O)c2ccc(C(F)(F)F)c(Cl)c2)cc1 [3-(4-{[3-chloro-4-(trifluoromethyl)benzene]sulfonyl}phenyl)-1-(pyridin-3-ylmethyl)urea]	–
25.5	1.3	O=C(NCc1cccnc1)Nc1ccc(S(=O)(=O)c2cc(Cl)cc(C(F)(F)F)c2)cc1 [3-(4-{[3-chloro-5-(trifluoromethyl)benzene]sulfonyl}phenyl)-1-(pyridin-3-ylmethyl)urea]	–
100 to 1000	2.2	O=C(NCc1cccnc1)Nc1ccc(S(=O)(=O)c2ccc(OCC(F)(F)F)c(F)c2)cc1 [3-(4-{[3-fluoro-4-(2,2,2-trifluoroethoxy)benzene]sulfonyl}phenyl)-1-(pyridin-3-ylmethyl)urea]	–
100 to 1000	5.5	O=C(NCc1cccnc1)Nc1ccc(S(=O)(=O)c2ccc(OC(F)(F)F)c(F)c2)cc1 [3-(4-{[3-fluoro-4-(trifluoromethoxy)benzene]sulfonyl}phenyl)-1-(pyridin-3-ylmethyl)urea]	–
100 to 1000	4.1	O=C(NCc1cccnc1)Nc1ccc(S(=O)(=O)c2ccc(C(F)(F)F)c(F)c2)cc1 [3-(4-{[3-fluoro-4-(trifluoromethyl)benzene]sulfonyl}phenyl)-1-(pyridin-3-ylmethyl)urea]	–
56.4	4	CC(C)COc1cc(F)cc(S(=O)(=O)c2ccc(NC(=O)NCc3cccnc3)cc2)c1 [3-(4-{[3-fluoro-5-(2-methylpropoxy)benzene]sulfonyl}phenyl)-1-(pyridin-3-ylmethyl)urea]	–
108	2	Cc1cc(NS(=O)(=O)c2ccc(NC(=O)NCc3cccnc3)cc2)ccc1C(C)C [3-(4-{[3-methyl-4-(propan-2-yl)phenyl]sulfamoyl}phenyl)-1-(pyridin-3-ylmethyl)urea]	–
100 to 1000	1	CCOCc1ccc(S(=O)(=O)c2ccc(NC(=O)NCc3cccnc3)cc2)cc1 [3-(4-{[4-(ethoxymethyl)benzene]sulfonyl[phenyl)-1-(pyridin-3-ylmethyl)urea]	–
100 to 1000	3	CC(C)c1ccc(S(=O)(=O)c2ccc(NC(=O)NCc3cccnc3)cc2)cc1 [3-(4-{[4-(propan-2-yl)benzene]sulfonyl[phenyl)-1-(pyridin-3-ylmethyl)urea]	–
29.1	1.7	CC(C)Oc1ccc(S(=O)(=O)c2ccc(NC(=O)NCc3cccnc3)cc2)cc1 [3-(4-{[4-(propan-2-yloxy)benzene]sulfonyl[phenyl)-1-(pyridin-3-ylmethyl)urea]	–
167	5	O=C(NCc1cccnc1)Nc1ccc(S(=O)(=O)c2ccc(Cl)c(C(F)(F)F)c2)cc1 [3-(4-{[4-chloro-3-(trifluoromethyl)benzene]sulfonyl}phenyl)-1-(pyridin-3-ylmethyl)urea]	–
201	3	O=C(NCc1cccnc1)Nc1ccc(S(=O)(=O)NCc2ccccc2Cl)cc1 [3-(4-{[(2-chlorophenyl)methyl]sulfamoyl}phenyl)-1-(pyridin-3-ylmethyl)urea]	–
97	8	COc1ccccc1CNS(=O)(=O)c1ccc(NC(=O)NCc2cccnc2)cc1 [3-(4-{[(2-methoxyphenyl)methyl]sulfamoyl}phenyl)-1-(pyridin-3-ylmethyl)urea]	–
156	2	CN(Cc1cccc(F)c1)S(=O)(=O)c1ccc(NC(=O)NCc2cccnc2)cc1 [3-(4-{[(3-fluorophenyl)methyl](methyl)sulfamoyl}phenyl)-1-(pyridin-3-ylmethyl)urea]	–
484	2	CN(Cc1ccc(Cl)cc1)S(=O)(=O)c1ccc(NC(=O)NCc2cccnc2)cc1 [3-(4-{[(4-chlorophenyl)methyl](methyl)sulfamoyl}phenyl)-1-(pyridin-3-ylmethyl)urea]	–

SMILES	IC50 ([1]; Homo sapiens, A2780, 72 h) [nM]	IC50 [2] [nM]	IC50 [1] [nM]
Cc1nnc(-c2cccc(S(=O)(=O)c3ccc(NC(=O)NCc4cccnc4)cc3)c2)o1 [3-(4-{[3-(5-methyl-1,3,4-oxadiazol-2-yl)benzene]sulfonyl]phenyl)-1-(pyridin-3-ylmethyl)urea]	–	7.3	100 to 1000
O=C(NCc1cccnc1)Nc1ccc(S(=O)(=O)c2cc(F)cc(OCC(F)(F)F)c2)cc1 [3-(4-{[3-fluoro-5-(2,2,2-trifluoroethoxy)benzene]sulfonyl]phenyl)-1-(pyridin-3-ylmethyl)urea]	–	1.1	29.7
O=C(NCc1cccnc1)Nc1ccc(S(=O)(=O)c2cc(F)cc(C(F)(F)F)c2)cc1 [3-(4-{[3-fluoro-5-(trifluoromethyl)benzene]sulfonyl[phenyl)-1-(pyridin-3-ylmethyl)urea]	–	0.7	57.6
O=C(NCc1cccnc1)Nc1ccc(S(=O)(=O)Nc2ccc(Cl)cc2OC(F)(F)F)cc1 [3-(4-{[4-chloro-2-(trifluoromethoxy)phenyl]sulfamoyl[phenyl)-1-(pyridin-3-ylmethyl)urea]	–	6	113
O=C(NCc1cccnc1)Nc1ccc(S(=O)(=O)c2ccc(F)c(OCC(F)(F)F)c2)cc1 [3-(4-{[4-fluoro-3-(2,2,2-trifluoroethoxy)benzene]sulfonyl[phenyl)-1-(pyridin-3-ylmethyl)urea]	–	2.1	23.4
O=C(NCc1cccnc1)Nc1ccc(S(=O)(=O)c2ccc(F)c(C(F)(F)F)c2)cc1 [3-(4-{[4-fluoro-3-(trifluoromethyl)benzene]sulfonyl[phenyl)-1-(pyridin-3-ylmethyl)urea]	–	1.5	86.2
Cc1ccc(NS(=O)(=O)c2ccc(NC(=O)NCc3cccnc3)cc2)cc1C(F)(F)F [3-(4-{[4-methyl-3-(trifluoromethyl)phenyl]sulfamoyl[phenyl)-1-(pyridin-3-ylmethyl)urea]	–	2	179
